The values below come from the supplement of paper PMC11061612.

Holding throughout (assay): combination Emax (second highest fraction inhibited in the dose matrix, 72 h); higher = more inhibition; extreme values may be limits of the assay
Assay [1] concerns AMO-1 (Plasma Cell Myeloma). In outline:
(§1)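 After 24 hours at 37°C and 5% CO2 in 1536-well plates, cells in DMEM/F12 or RPMI plus 10% FBS received two-drug dose matrices for 72 hours. Viability came from CellTiter-Glo 2.0 luminescence and was scaled as inhibition, anchored at 0 by vehicle wells and at 1 by blank wells. Combination Emax is taken as the second-highest inhibition in the matrix, and Bliss excess as the observed combination effect less EA + EB − EA·EB, with EA and EB the single-agent effects.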

The test system of assay [2] is Caov-4 (Ovarian Carcinoma). In outline: as §1
In assay [3] the test system is EW-24 (Ewing's Sarcoma). In outline:
as §1

Assay [4] deals with EoL-1-cell (Acute Myeloid Leukemia). In outline:
as §1

Assay [5] deals with HGC-27 (Gastric Carcinoma). In outline:
as §1

The subject of assay [6] is HSC-4 (Oral Cavity Carcinoma). In outline:
as §1

The test system of assay [7] is KARPAS-299 (T-Cell Non-Hodgkin's Lymphoma). In outline:
as §1

Assay [8] relates to KMOE-2 (Acute Myeloid Leukemia). In outline: as §1
Assay [9] has as its system LU-65 (Non-Small Cell Lung Carcinoma). In outline: as §1
Assay [10] has as its system MLMA (Other Blood Carcinomas). In outline:
as §1

Assay [11] has as its system NCI-H1915 (Non-Small Cell Lung Carcinoma). In outline: as §1
The test system of assay [12] is NCI-H358 (Lung Adenocarcinoma). In outline: as §1
For assay [13], the system named is NUGC-3 (Gastric Carcinoma). In outline:
as §1

Assay [14] relates to OE19 (Esophageal Adenocarcinoma). In outline:
as §1

Assay [15] concerns OVCAR-4 (Ovarian Carcinoma). In outline: as §1
The test system of assay [16] is PWR-1E (Non-Cancerous). In outline:
as §1

Assay [17] has as its system SCC-15 (Oral Cavity Carcinoma). In outline: as §1
The test system of assay [18] is TE-1 (Esophageal Squamous Cell Carcinoma). In outline:
as §1

Assay [19] has as its system TK10 (Kidney Carcinoma). In outline:
as §1

For assay [20], the system named is YH-13 (Glioblastoma). In outline: as §1

With `COc1nnc2ccc(N3CCC(c4ccc(OCCN5CCN(C)C(=O)[C@H]5C)cc4)CC3)nn12` [AZD5153] + C=CCn1c(=O)c2cnc(Nc3ccc(N4CCN(C)CC4)cc3)nc2n1-c1cccc(C(C)(C)O)n1 [AZD1775] (first compound max 1 µM, partner max 1 µM), the “combination Emax” value in [1] is 0.978; in [2], 0.864; in assay [3] it was 0.609; in [4] it was 1; in [5] it was 0.839; in [6], 0.397. Also, the “combination Emax” value in [7] was determined as 0.919; in assay [8] it was 0.971; in assay [9], 0.799; in [10], 0.938; in [11], 0.678; in [12], 0.63. The “combination Emax” value in [13] was determined as 0.715; in [14], 0.539; in assay [15] it was 0.583; in assay [16] it was 0.886; in [17] it was 0.435; in assay [18], 0.591. For the same compound, the “combination Emax” value in [19] was determined as 0.604; in [20], 0.592.
On to `COc1nnc2ccc(N3CCC(c4ccc(OCCN5CCN(C)C(=O)[C@H]5C)cc4)CC3)nn12` [AZD5153] + CC1(C)CCC(CN2CCN(c3ccc(C(=O)NS(=O)(=O)c4ccc(NCC5CCOCC5)c([N+](=O)[O-])c4)c(Oc4cnc5[nH]ccc5c4)c3)CC2)=C(c2ccc(Cl)cc2)C1 [Venetoclax] (first compound max 1 µM, 7x7, partner max 1 µM), for which the “combination Emax” value amounted to 0.907 in [1]; 0.543 in assay [2]; 0.498 in [3]; 1 in assay [4]; 0.777 in assay [5]; 0.0567 in assay [6]. The “combination Emax” value in assay [7] was 0.781; in assay [8] it was 0.847; in assay [9] it was 0.458; in assay [10], 0.912; in assay [11] it was 0.432; in assay [12], 0.345. Further, the “combination Emax” value is 0.464 in [13]; 0.494 in assay [14]; 0.444 in assay [15]; 0.61 in assay [16]; 0.335 in assay [17]; 0.4 in assay [18]. Also, the “combination Emax” value in assay [19] turned out to be 0.594; in [20] it was 0.656.
For the compound `COc1nnc2ccc(N3CCC(c4ccc(OCCN5CCN(C)C(=O)[C@H]5C)cc4)CC3)nn12` [AZD5153] + CCN(CCO)CCCOc1ccc2c(Nc3cc(CC(=O)Nc4cccc(F)c4)[nH]n3)ncnc2c1 [AZD2811] (first compound max 1 µM, 7x7, partner max 1 µM), the “combination Emax” value in [1] worked out at 0.912; in [2] it was 0.597; in [3] it was 0.616; in [4], 1; in assay [5], 0.82; in assay [6], 0.292. Besides, the “combination Emax” value in assay [7] turned out to be 0.847; in assay [8], 0.901; in [9], 0.494; in [10], 0.915; in assay [11], 0.486; in assay [12] it was 0.352. Further, the “combination Emax” value in assay [13] worked out at 0.579; in [14], 0.693; in assay [15], 0.467; in assay [16], 0.782; in [17], 0.41; in assay [18], 0.49. Further, the “combination Emax” value in assay [19] was found to be 0.564; in assay [20] it was 0.585.
As for `COc1nnc2ccc(N3CCC(c4ccc(OCCN5CCN(C)C(=O)[C@H]5C)cc4)CC3)nn12` [AZD5153] + C[C@@H]1COCCN1C2=NC(=NC(=C2)C3(CC3)[S@](=N)(=O)C)C4=C5C=CNC5=NC=C4 [AZD6738] (first compound max 1 µM, 7x7, partner max 10 µM), the “combination Emax” value amounted to 0.978 in [1]; 0.894 in assay [2]; 0.834 in assay [3]; 1 in [4]; 0.859 in [5]; 0.528 in [6]. The “combination Emax” value in [7] is 0.985; in assay [8], 0.988; in [9], 0.734; in assay [10] it was 0.967; in [11], 0.546; in [12], 0.698. The “combination Emax” value turned out to be 0.775 in assay [13]; 0.616 in assay [14]; 0.711 in assay [15]; 0.997 in assay [16]; 0.524 in assay [17]; 0.617 in assay [18]. The “combination Emax” value in assay [19] is 0.695; in assay [20], 0.663.
As to `COc1nnc2ccc(N3CCC(c4ccc(OCCN5CCN(C)C(=O)[C@H]5C)cc4)CC3)nn12` [AZD5153] + Cc1c2c(nn1C)CSCc1cc(n(C)n1)CSc1cc(c3ccccc3c1)OCCCc1c(C(=O)O)n(C)c3c-2c(Cl)ccc13 [AZD5991] (first compound max 1 µM, 7x7, partner max 1 µM), the “combination Emax” value amounted to 1 in assay [1]; 0.86 in assay [2]; 0.685 in assay [3]; 1 in [4]; 0.987 in assay [5]; 0.199 in assay [6]. Besides, the “combination Emax” value in assay [7] stood at 0.978; in assay [8], 0.936; in [9] it was 0.623; in assay [10], 0.994; in assay [11] it was 0.502; in assay [12], 0.448. Moreover, the “combination Emax” value in assay [13] was 0.519; in assay [14] it was 0.623; in assay [15] it was 0.523; in [16], 0.837; in assay [17] it was 0.436; in assay [18] it was 0.511. In addition, the “combination Emax” value in assay [19] is 0.593; in [20], 0.667.
In the case of `COc1nnc2ccc(N3CCC(c4ccc(OCCN5CCN(C)C(=O)[C@H]5C)cc4)CC3)nn12` [AZD5153] + Cn1cnc2c(F)c(Nc3ccc(Br)cc3Cl)c(C(=O)NOCCO)cc21 [Selumetinib] (first compound max 1 µM, 7x7, partner max 10 µM), the “combination Emax” value turned out to be 0.928 in assay [1]; 0.706 in [2]; 0.444 in assay [3]; 1 in [4]; 0.796 in assay [5]; 0.423 in [6]. Besides, the “combination Emax” value in [7] came out at 0.996; in [8], 1; in assay [9], 0.789; in assay [10], 0.906; in assay [11], 0.732; in [12], 0.589. Moreover, the “combination Emax” value in assay [13] was 0.649; in assay [14], 0.631; in assay [15], 0.492; in [16], 0.777; in [17] it was 0.584; in assay [18] it was 0.601. Moreover, the “combination Emax” value in assay [19] is 0.604; in assay [20], 0.546.
For the compound `Cc1c2c(nn1C)CSCc1cc(n(C)n1)CSc1cc(c3ccccc3c1)OCCCc1c(C(=O)O)n(C)c3c-2c(Cl)ccc13` [AZD5991] + C1CN(CCC1(C(=O)N[C@@H](CCO)C2=CC=C(C=C2)Cl)N)C3=NC=NC4=C3C=CN4 [Capivasertib] (first compound max 1 µM, 7x7, partner max 3 µM), the “combination Emax” value in assay [1] stood at 1; in assay [2], 0.493; in assay [3] it was 0.332; in [4], 1; in assay [5] it was 0.861; in assay [6] it was 0.42. Further, the “combination Emax” value in assay [7] came out at 1; in assay [8], 0.793; in assay [9] it was 0.543; in assay [10], 0.407; in assay [11], 0.18; in [12], 0.243. The “combination Emax” value in [13] worked out at 0.171; in assay [14] it was 0.442; in assay [15] it was 0.18; in assay [16], 0.226; in [17] it was 0.207; in assay [18], 0.553. Further, the figures for the “combination Emax” value in [19] and in assay [20] were 0.257 and 0.265, respectively.
